Results as given in patent publication US10563270B2, “Solid forms of menaquinols” (Gnosis S.p.A., priority 2015, dated 2020).

Key:
[1] = tested on: Caco-2 human adenocarcinoma cells; assay: Absorption of reduced or oxidised vitamin K2-(MK7) on cell monolayer of Caco-2 cells in vitro; assay type: in vitro ADME; conditions: for amount of vitamin internalized by the cell layer (μg of vitamin per g of homogenate): 100 μM vitamin applied to apical compartment, 1% ethanol
Method: Caco-2 human adenocarcinoma cells were cultured on a permeable insert inserted in the well of a microplate to form a confluent monolayer with the barrier function between an apical and a basolateral compartment. The perfect integrity of the monolayer was determined by testing for the absence of passage by lucifer yellow, a compound with low permeability. Samples of vitamin K2-(MK7), alternatively in the reduced form (menaquinol) or the oxidized form (menaquinone), were dissolved in ethanol and applied to the apical compartment, the 1% ethanol solution being added to the incubation buffer. The final solution in the incubation well was fixed at 100 μM of vitamin.
At the end of the incubation period the cell layer was removed from the insert and homogenized, and the homogenate was centrifuged. The amount of vitamin present in the supernatant was determined by HPLC. The centrifugation pellet was then resuspended in 1 ml of water, and 1.5 ml of isopropanol and 2.5 ml of hexane were added to the suspension. After stirring, the organic phase formed was analyzed, again by HPLC, for the concentration of vitamin K2 (MK7). The total of the two values was used to calculate the amount of vitamin internalized by the cell layer.

[2] = Stability tests of solid forms of reduced vitamin K2-(MK7) (oxidation of the reduced form over storage time); assay type: physicochemical; conditions: for Reduced (t/t0 %): percentage of the initial value of the reduced form; for percentage of the initial value of the reduced form: packaging Alu/vacuum

Compound: CC(C)=CCC/C(C)=C/CC/C(C)=C/CC/C(C)=C/CC/C(C)=C/CC/C(C)=C/CC/C(C)=C/CC1=C(C)C(=O)c2ccccc2C1=O [Oxidised vitamin, menaquinone 7, reference compound]
- amount of vitamin internalized by the cell layer (μg of vitamin per g of homogenate) ([1]; mean of wells 1-4): 0.6 μg/g hom.
- amount of vitamin internalized by the cell layer (μg of vitamin per g of homogenate) ([1]; well 1): 0.4 μg/g hom.
- amount of vitamin internalized by the cell layer (μg of vitamin per g of homogenate) ([1]; well 2): 0.5 μg/g hom.
- amount of vitamin internalized by the cell layer (μg of vitamin per g of homogenate) ([1]; well 3): 0.6 μg/g hom.
- amount of vitamin internalized by the cell layer (μg of vitamin per g of homogenate) ([1]; well 4): 0.7 μg/g hom.

Compound: CC(C)=CCC/C(C)=C/CC/C(C)=C/CC/C(C)=C/CC/C(C)=C/CC/C(C)=C/CC/C(C)=C/Cc1c(C)c(O)c2ccccc2c1O [Reduced vitamin, menaquinol 7]
- amount of vitamin internalized by the cell layer (μg of vitamin per g of homogenate) ([1]; mean of wells 1-4): 1.1 μg/g hom.
- uptake by Caco-2 cell layer compared with the oxidized form ([1]; result in words, 100 μM vitamin): slightly but significantly higher uptake
- amount of vitamin internalized by the cell layer (μg of vitamin per g of homogenate) ([1]; well 1): 0.8 μg/g hom.
- amount of vitamin internalized by the cell layer (μg of vitamin per g of homogenate) ([1]; well 2): 1.6 μg/g hom.
- amount of vitamin internalized by the cell layer (μg of vitamin per g of homogenate) ([1]; well 3): 1.0 μg/g hom.
- amount of vitamin internalized by the cell layer (μg of vitamin per g of homogenate) ([1]; well 4): 0.8 μg/g hom.

Compound: CC(C)=CCC/C(C)=C/CC/C(C)=C/CC/C(C)=C/CC/C(C)=C/CC/C(C)=C/CC/C(C)=C/Cc1c(C)c(O)c2ccccc2c1O [menaquinol 7, reference compound]
- Reduced (t/t0 %) ([2]; Time 0 days): 100%
- Reduced (t/t0 %) ([2]; Time 3 days): 4%

Compound: CC(C)=CCC/C(C)=C/CC/C(C)=C/CC/C(C)=C/CC/C(C)=C/CC/C(C)=C/CC/C(C)=C/Cc1c(C)c(O)c2ccccc2c1O [menaquinol 7]
- percentage of the initial value of the reduced form ([2]; T = 0): 100%
- percentage of the initial value of the reduced form ([2]; T = 1 month): 95.4%
- percentage of the initial value of the reduced form ([2]; T = 2 months): 98.9%
- percentage of the initial value of the reduced form ([2]; T = 3 months): 97.9%
- % vitamin oxidised ([2]; Time 0 days): 18.41%
- % vitamin reduced ([2]; Time 0 days): 81.58%
- % vitamin oxidised ([2]; Time 3 days): 23.67%
- % vitamin reduced ([2]; Time 3 days): 76.24%
- % vitamin oxidised ([2]; Time 6 days): 36.69%
- % vitamin reduced ([2]; Time 6 days): 63.16%
- % vitamin oxidised ([2]; Time 10 days): 51.48%
- % vitamin reduced ([2]; Time 10 days): 48.27%
- % vitamin oxidised ([2]; Time 11 days): 52.67%
- % vitamin reduced ([2]; Time 11 days): 47.04%
- % vitamin oxidised ([2]; Time 12 days): 61.09%
- % vitamin reduced ([2]; Time 12 days): 38.44%
